Test system: MDA-MB-231 cells
Experiment: Cell viability/cell growth, cells re-treated every 48 hours
Assay type: cell-based
Conditions: triple negative breast cancer cells
Experimental: MDA-MB-231 cells were plated on a 96-well plate at 10,000 cells per well to evaluate the effects of BSA alone, conjugated DHA-BSA, Liposomal DHA, and a ghost liposome on cell viability. The cells were re-treated every 48 hours. […] All treatments were compared to the cell/media control. The ghost had no effect on cell viability.

**Q.** For `CC/C=C\C/C=C\C/C=C\C/C=C\C/C=C\C/C=C\CCC(=O)O` [DHA, Docosahexanoic acid], which “concentration that inhibits cell growth with comparable effect” value is on record?
**A.** Its value is 25 to 50 µM.

— patent US10272041B2, “Acid stable liposomal compositions and methods for producing the same” (The Penn State Research Foundation, priority 2013, dated 2019)
